Data as given in US11759461B2, “Small molecule inhibitors of cancer stem cells and mesenchymal cancer types” (The Scripps Research Institute, priority 2017, dated 2023).
Like-named read-outs stand apart in the source and are kept apart here.

Columns and labels:
VIM [1] = molecular target: T1, VIM (Homo sapiens, UniProt P08670); assay: Western blotting / immunofluorescence of VIM protein status in FOXC2-HMLER cells; assay type: cell-based
T1 construct: endogenous in cells; host or cells: FOXC2-HMLER
T1 sequence (P08670 whole entry): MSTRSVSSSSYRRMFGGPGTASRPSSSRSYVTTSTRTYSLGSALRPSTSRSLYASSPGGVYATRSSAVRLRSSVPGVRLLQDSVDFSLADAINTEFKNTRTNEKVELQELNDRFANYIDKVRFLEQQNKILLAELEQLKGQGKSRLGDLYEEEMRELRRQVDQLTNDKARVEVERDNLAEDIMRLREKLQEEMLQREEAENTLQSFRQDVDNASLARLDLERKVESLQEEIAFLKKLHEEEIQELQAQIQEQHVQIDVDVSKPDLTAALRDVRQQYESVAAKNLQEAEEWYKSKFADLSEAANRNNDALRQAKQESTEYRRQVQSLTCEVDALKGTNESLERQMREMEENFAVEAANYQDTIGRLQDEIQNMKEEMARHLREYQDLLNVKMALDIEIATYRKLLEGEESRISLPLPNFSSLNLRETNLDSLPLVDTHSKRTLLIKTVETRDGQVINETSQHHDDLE
Procedure: Western blotting was performed essentially as described previously (M. J. Bollong et al. ACS Chem. Biol. 10 (2015) 2193-2198). Cells were collected by brief trypsinization and centrifugation at 500 g for 5 minutes. Cells were lysed by the addition of RIPA buffer with protease and phosphatase inhibitors (Roche). Lysates were incubated on ice for 30 minutes before eliminating insoluble protein content by centrifugation at 12,000 g for 5 minutes at 4° C. Protein concentrations were determined from absorbance values obtained by a Nanodrop instrument. Equal amounts of protein were then mixed with 2× loading buffer (100 mM TRIS-HCl, 1% SDS, 10% glycerol, 0.1% bromophenol blue 10%-mercaptoethanol) and exposed to 95° C. for 5 minutes. Protein was separated by SDS-PAGE using 4-12% Bis-Tris Gels (Invitrogen) and then transferred to PVDF membranes (Invitrogen) using semi-dry transfer. Membranes were blocked for 1 hour at room temperature in 5% non-fat dry milk in TBST (Tris buffered saline with 0.1% Tween 20). Membranes were incubated overnight with primary antibodies in blocking buffer overnight at the dilutions ranging from 1:500 to 1:2000. After 3 washes with TBST, membranes were then exposed to HRP-conjugated secondary antibodies (1:5000 in blocking buffer, Sigma) for one hour followed by one hour of additional washing with TBST. Relative protein content was visualized using film and SuperSignal West Dura Substrate. For VIM degradation blots, 20-60 μg of protein content was loaded per gel lane and the anti-VIM antibody V9 (ab8069) was used to blot for VIM protein content. Phospho-protein blots were performed as above with the exception that primary antibodies were incubated in 5% bovine serum albumin in TBST instead of milk.
We performed Western blotting analysis of FOXC2-HMLER cells treated for 24 hours with Compound 1 with commercially available antibodies targeting specific phosphorylated VIM species (P-S39, P-S56, P-S83).
In contrast, only a small fraction of cells undergoing mitosis stained positive for P-S56-VIM in DMSO-treated controls, consistent with previous reports identifying phosphorylation at S56 as a modification catalyzed by cyclin dependent kinase 1 (CDK1; FIG. 6) (T. Yamaguchi, T. et al., J. Cell Biol. 171 (2005) 431-436.

[2] = system: SNAIL-HMLE, MDA-MB-231, and SUM159; assay: Growth inhibition of additional mesenchymal breast cancer cell lines; assay type: cell-based, human; details: MDA-MB-231, SUM159, express FOXC2 from endogenous locus
Source text: (§1) The propagation conditions and generation of FOXC2-HMLER, HMLER, SNAIL-HMLER, SNAIL-HMLE, and SUM159 cells have been described previously (Mani (2008)). MCF-7, HepG2, HCT116, and MDA-MB-231 cells were from ATCC and maintained in DMEM medium (Corning) supplemented with 10% FBS (Corning) with Anti-anti (Gibco). The soft tissue sarcoma cell line panel was purchased from ATCC (TCP-1019) and maintained in the recommended medium for each cell type. HUVEC cells (pooled donor) were maintained in EBM-2 medium (both from Lonza Walkersville). Primary human lung fibroblasts were maintained in Fibroblast Medium (both from Sciencell Research Laboratories). For cell growth experiments, HLFs were grown in DMEM supplemented with 2% FBS and Anti-anti. For all experiments, primary human cells were used at a passage no greater than 4.
For high throughput screening, FOXC2-HMLER and HMLER cells were plated at 10^3 cells per well in white 384-well plates in 50 μL of MEGM medium (Lonza). Cells were allowed to attach for one hour before compound was transferred to each well as a DMSO solution using a 100 nL pintool head affixed to a PerkinElmer FX instrument. After 72-hour incubation, 30 μL of a Cell Titer Glo solution (diluted 1:6 in water, Promega) was dispensed into each well and luminance values were recorded using an Envision plate reader. […]

VIM [3] = molecular target: T1, VIM; assay: Immunofluorescent analysis of VIM filamentous architecture in HUVECs; assay type: cell-based; details: one-hour treatment
[4] = system: STS cell lines (HT 1080, SW684, RD, GCT, SW872, SW982); assay: Anti-proliferative activity against soft tissue sarcoma cell line panel; assay type: cell-based
Source text: as §1
For high throughput screening, FOXC2-HMLER and HMLER cells were plated at 10^3 cells per well in white 384-well plates in 50 μL of MEGM medium (Lonza). Cells were allowed to attach for one hour before compound was transferred to each well as a DMSO solution using a 100 nL pintool head affixed to a PerkinElmer FX instrument. After 72-hour incubation, 30 μL of a Cell Titer Glo solution (diluted 1:6 in water, Promega) was dispensed into each well and luminance values were recorded using an Envision plate reader. […] Selected hit compounds were reordered from ChemDiv and tested for selective toxicity in 10-point response assays as above. All other miniaturized, selective viability experiments were performed as above using the indicated growth medium.
The anti-proliferative activity of Compound 1 was assessed against a selection of soft tissue sarcomas (STS), which collectively refers to a broad grouping of over 50 subtypes of connective tissue derived cancers for which targeted therapies are lacking (Zambo (2014)). […]
A panel of 6 STS cell lines were evaluated, which cell lines included the histological subtypes of fibrosarcoma (HT 1080, SW684), rhabdomyosarcoma (RD), fibrous histiocytoma (GCT), liposarcoma (SW872), and synovial sarcoma (SW982). […]

[5] = FOXC2-HMLER cells, 24 hours, 500 nM, Western blotting
[6] = FOXC2-HMLER cells, Western blotting

In the case of `Clc1cccc(N2CCN(c3cnnc4c(Cl)cccc34)CC2)c1` [Compound 1, 8-chloro-4-(4-(3-chlorophenyl)piperazin-1-yl)cinnoline], the “P-S39- and P-S83-VIM protein content” value (VIM [1]; [5]) is reported as “modest increase”, the “steady state levels of P-S56-VIM” value (VIM [1]; [5]) is reported as “marked increase” and the “dibromobimane-crosslinked dimeric VIM protein content” value (VIM [1]; [6]) is reported as “dramatically reduced”. For the same compound, the “lower molecular weight VIM degradation products” value (VIM [1]; [6]) was “dose-dependent accumulation”, the “P-S56-VIM positive FOXC2-HMLER cells” value (VIM [1]; immunofluorescent staining) was “concentration dependent increase” and the “growth of additional mesenchymal breast cancer cell lines” value [2] was “inhibit the growth”. For the same compound, the “VIM filamentous architecture in HUVECs” value (VIM [3]) was “promoted the destruction of fine VIM-containing filamentous structures”, the IC50 ([4]; Homo sapiens, SW872 liposarcoma cell line, read-out: IC50, SW872 cells) was 440 nM and the “multinucleation phenotype in STS cell lines” value ([4]; all STS cell lines, 24-hour treatment) was “robust multinucleation phenotype”. The IC50 ([4]; panel of 6 STS cell lines, read-out: IC50 values, growth of all STS cell lines) was 440 to 1310 nM.
